Experiments:
[1] = UV visible spectroscopy of supernatant after addition of composite resin powder; type: binding; details: 306 nm methyl salicylate, 272 nm thymol
Protocol: (§1) To analyze how the different tested molecules (methyl salicylate, thymol and spearmint oil) interact with composite and the tooth structure UV Visible spectroscopy was used. Dilute solutions of the three tested molecules were prepared. […] The resulting solutions were analyzed in triplicates using UV visible spectrophotometer (Evolution 200 series, Thermo Scientific, Madison, USA) and the resulting absorbance peaks were plotted as control (FIG. 1). After this, equal weights of composite resin and hydroxy-apatite powders were added to equal volumes of the diluted solutions of the three tested molecules.
(§2) The characterization of the interaction between the staining components and both composite resin and the tooth structure was performed using UV visible spectroscopy which was chosen to characterize indirectly the insoluble powder; a method that is largely used in pharmaceutical industry. In this method, different weights of insoluble polymer are added to a known concentration of a solute with a clear fingerprint in UV-vis spectrum. After each addition, the filtered solutions are then analyzed using UV-vis spectrophotometer and the resultant effect on the UV spectrum is compared to the baseline readings.

[2] = UV visible spectroscopy of supernatant after addition of hydroxy-apatite powder; type: binding; details: 306 nm MeSa, 272 nm thymol
Protocol: as §1, §2

Row | SMILES | decrease of main absorbance peak ([1]; 0.3 g composite resin) [%] | decrease of main absorbance peak ([1]; 0.5 g composite resin) [%] | decrease of main absorbance peak ([1]; 0.8 g composite resin) [%] | change of main absorbance peak ([2]; 0.3 g hydroxy-apatite) [%] | change of main absorbance peak ([2]; 0.5 g hydroxy-apatite) [%] | change of main absorbance peak ([2]; 0.8 g hydroxy-apatite) [%]
1 | Cc1ccc(C(C)C)c(O)c1 [thymol] | 47±17 | 55±1.2 | 66±2.9 | 14±3.3 | 10±9.2 | 7±1.6
2 | COC(=O)c1ccccc1O [methyl salicylate] | 37±3.9 | 38±25 | 85±12 | 13±22 | 11±14 | 1.1±15
